Laboratory results from patent US20160250224A1, “OREXIN-CONTROL OF BONE FORMATION AND LOSS” (THE BOARD OF REGENTS OF THE UNIVERSITY OF TEXAS SYSTEM, priority 2013, published 2016).
Where no end group is shown, it is not given here.

Legend:
[1] = system: adipocyte differentiation from WT marrow; experiment: Ex vivo bone marrow adipocyte differentiation; type: cell-based, mouse; conditions: 10 nM, vs vehicle control
Procedure: (§1) Ex Vivo Bone Marrow Differentiation. Bone marrow cells were cultured for 4 days in MSC media (Mouse MesenCult® Proliferation Kit, StemCell Technologies), then differentiated into osteoblast with a-MEM containing 10% FBS, 5 mM β-glycerophosphate and 100 μg/ml ascorbic acid for 9 days, or differentiated into adipocytes with adipogenesis medium (MesenCult Basal Medium+Mouse MesenCult Adipogenic Stimulatory Supplement, StemCell Technologies) for 7 days (Wei et al., 2012; Wei et al., 2011a; Wei et al., 2011b). For ghrelin knockdown, siRNA was transfected twice with Fugene HD (Roche) the day before and 3 days after differentiation. Osteoclast differentiation was performed as described (Wan et al., 2007; Wei et al., 2010).

ghrelin [2] = experiment: Ghrelin expression and secretion in marrow adipocyte differentiation cultures; type: cell-based, mouse; conditions: for ghrelin expression in adipocyte differentiation cultures: 10 nM, ghrelin mRNA; for ghrelin secretion: adipocyte culture (not shown)
ghrelin [3] = experiment: Ghrelin expression and secretion in marrow osteoblast differentiation cultures; type: cell-based, mouse; conditions: 10 nM; for ghrelin induction during osteoblast differentiation: ghrelin mRNA; for ghrelin secretion: osteoblast culture
[4] = system: osteoblast differentiation from WT marrow; experiment: Ex vivo bone marrow osteoblast differentiation; type: cell-based, mouse; conditions: 10 nM, vs vehicle control
Procedure: as §1

orexin-A receptor = target: T1, orexin-A receptor (Rattus norvegicus, UniProt P56718); conditions: rats, low doses; cited from earlier work
T1 construct: The insula contains orexin-A receptors; from tissue; host or cells: rat brain (insula; whole brain), in vivo
T1 sequence (P56718 1-416): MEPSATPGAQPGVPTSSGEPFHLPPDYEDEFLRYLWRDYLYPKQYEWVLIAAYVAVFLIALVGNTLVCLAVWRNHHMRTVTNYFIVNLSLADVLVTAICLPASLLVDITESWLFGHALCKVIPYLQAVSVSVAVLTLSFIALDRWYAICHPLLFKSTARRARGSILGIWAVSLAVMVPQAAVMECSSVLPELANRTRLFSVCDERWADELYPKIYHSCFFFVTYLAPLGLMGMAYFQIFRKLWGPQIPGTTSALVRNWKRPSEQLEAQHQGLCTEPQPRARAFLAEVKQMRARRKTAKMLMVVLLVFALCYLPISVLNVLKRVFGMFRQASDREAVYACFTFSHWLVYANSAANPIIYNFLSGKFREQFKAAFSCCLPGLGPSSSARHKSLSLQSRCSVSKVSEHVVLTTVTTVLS

insomniacs = conditions: phase III, three months; cited from earlier work
WT mice = experiment: Chronic ICV injection of OX2R agonist in WT mice, bone analyses; type: in vivo, mouse
Procedure: (§2) Bone Analyses. μCT and histomorphometry were performed as described (Wei et al., 2012; Wei et al., 2010). Calcein (20 mg/kg) were injected 2 and 10 days before bone collection. For strength measurement, tibiae were tested by 3-point bending, and a strength parameter (peak load at failure) was assessed with a Test Resources DDL200 axial loading machine outfitted with an Interface SMT1-22 force transducer. Cross-head displacement rate was 0.1 mm/sec. Tests were conducted on the mid-diaphyses with the bones resting on two supports 5 mm apart and the tibial anterior margins facing upward toward the actuator. Serum P1NP and CTX-1 were measured with the Rat/Mouse P1NP EIA kit and the RatLaps™ EIA kit, respectively (Immunodiagnostic Systems) (Wei et al., 2012).
(§3) Chronic ICV Injection. Mice were single-housed one week before surgery. After anesthetized with 2-3% isoflurane, a cannula (3300PM/SPC; PlasticsOne) was implanted into the right lateral ventricle (0.3 mm posterior from the bregma, […] lateral from the midline, and 2.4 mm from the surface of skull) using standard sterile stereotactic techniques as described (Funato et al., 2009). An osmotic minipump (model 1004; Alzet) was attached to the cannula and implanted in the subcutaneous space. The OX2R selective agonist ([Ala11, D-Leu15] Orexin-B; American Peptide) (Asahi et al., 2003) or PBS control was continuously injected in the lateral ventricle for 35 days (0.5 nmol/day) before analyses. Ovariectomy or sham operation was performed 3 days before ICV infusion as described (Wei et al., 2011b).

OX2R-KO mice = experiment: Chronic ICV injection of OX2R agonist in OX2R-KO mice; type: in vivo, mouse; conditions: ICV 0.5 nmol/day for 35 days
Procedure: as §2
Chronic ICV Injection. Mice were single-housed one week before surgery. After anesthetized with 2-3% isoflurane, a cannula (3300PM/SPC; PlasticsOne) was implanted into the right lateral ventricle (0.3 mm posterior from the bregma, […] lateral from the midline, and 2.4 mm from the surface of skull) using standard sterile stereotactic techniques as described (Funato et al., 2009). An osmotic minipump (model 1004; Alzet) was attached to the cannula and implanted in the subcutaneous space. […]

[5] = system: OVX-induced bone loss in WT female mice; experiment: Chronic ICV injection of OX2R agonist in ovariectomy (OVX) mouse model; type: in vivo; conditions: ICV 0.5 nmol/day for 35 days from 3 days after OVX, 6-month-old female mice
Procedure: as §2, §3

Ob/Ob mice = experiment: Chronic ICV injection of OX2R agonist in Ob/Ob mice; type: in vivo, mouse
Procedure: as §2, §3

OX1 = target: T2, OX1 (Homo sapiens, UniProt O43613); conditions: OX1 vs OX2; cited from earlier work
T2 sequence (O43613 1-425): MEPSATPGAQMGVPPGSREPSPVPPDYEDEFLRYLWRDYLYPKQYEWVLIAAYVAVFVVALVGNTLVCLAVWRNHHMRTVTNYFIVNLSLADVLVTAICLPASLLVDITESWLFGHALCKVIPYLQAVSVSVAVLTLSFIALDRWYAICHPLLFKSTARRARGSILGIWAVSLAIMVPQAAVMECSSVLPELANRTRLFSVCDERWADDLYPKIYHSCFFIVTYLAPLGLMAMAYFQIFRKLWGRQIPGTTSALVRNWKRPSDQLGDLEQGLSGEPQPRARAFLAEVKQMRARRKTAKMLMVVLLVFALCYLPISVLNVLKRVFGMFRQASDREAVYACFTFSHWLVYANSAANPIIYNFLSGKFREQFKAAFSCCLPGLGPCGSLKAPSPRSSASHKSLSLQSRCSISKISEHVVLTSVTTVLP

3T3-L1 adipocytes = conditions: cited from earlier work
orexin receptor type 2 = target: T3, orexin receptor type 2 (Homo sapiens, UniProt O43614); conditions: type 2 vs type 1; cited from earlier work
T3 sequence (O43614 1-444): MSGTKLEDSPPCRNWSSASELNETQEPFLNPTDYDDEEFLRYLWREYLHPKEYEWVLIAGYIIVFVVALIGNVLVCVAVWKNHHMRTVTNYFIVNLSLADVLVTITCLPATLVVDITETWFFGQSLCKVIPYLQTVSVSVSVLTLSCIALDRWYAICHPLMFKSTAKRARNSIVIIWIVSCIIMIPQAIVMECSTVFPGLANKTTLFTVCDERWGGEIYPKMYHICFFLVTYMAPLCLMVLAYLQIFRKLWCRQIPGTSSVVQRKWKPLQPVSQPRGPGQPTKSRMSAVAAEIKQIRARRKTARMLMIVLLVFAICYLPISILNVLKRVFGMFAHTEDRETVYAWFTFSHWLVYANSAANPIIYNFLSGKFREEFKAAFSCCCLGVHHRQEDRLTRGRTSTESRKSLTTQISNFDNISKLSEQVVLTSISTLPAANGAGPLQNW

[6] = ICV 0.5 nmol/day for 35 days, WT male mice, serum
[7] = ICV 0.5 nmol/day for 35 days, WT male mice, tibiae μCT

## CNC(=O)[C@@H](c1ccccc1)N1CCc2cc(OC)c(OC)cc2[C@@H]1CCc1ccc(C(F)(F)F)cc1 [ACT-078573, almorexant]
[1]
  adipocyte differentiation: attenuated
Ghrelin [2]
  ghrelin expression in adipocyte differentiation cultures: enhanced
  ghrelin secretion: elevated
Ghrelin [3]
  ghrelin induction during osteoblast differentiation: potentiated
  ghrelin secretion: elevated
[4]
  osteoblast differentiation: promoted

## Cc1nc2ccc(NC(=O)Nc3ccnc4cccnc34)cc2o1 [SB-334,867]
orexin-A receptor
  nicotine self-administration: decreased

## Cc1cc(NC(=O)Nc2ccc(N(C)C)cc2)c2cc(F)cc(F)c2n1 [SB-408124]
[1]
  adipocyte differentiation: attenuated
Ghrelin [2]
  ghrelin expression in adipocyte differentiation cultures: enhanced
  ghrelin secretion: elevated
Ghrelin [3]
  ghrelin induction during osteoblast differentiation: potentiated
  ghrelin secretion: elevated
[4]
  osteoblast differentiation: promoted

## Cc1ccc(-n2nccn2)c(C(=O)N2CCN(c3nc4cc(Cl)ccc4o3)CC[C@H]2C)c1 [suvorexant]
insomniacs
  falling asleep: faster
  sleep duration: an hour longer

## [Ala11, D-Leu15] Orexin-B [OX2R-AG]
WT mice; ICV 0.5 nmol/day for 35 days, WT male mice
  bone mass (μCT): remarkably enhanced
WT mice; [6]
  CTX-1: unaltered
  P1NP, increased: 100%
WT mice; ICV 0.5 nmol/day for 35 days, WT male mice, three-point bending
  peak load at fracture, higher: 11%
WT mice; [7]
  BMD, higher: 8%
  SMI, lower: 25%
  Tb.N, higher: 32%
  Tb.Sp, lower: 33%
  Tb.Th, higher: 30%
  cortical bone BV/TV, higher: 1%
  cortical bone porosity, less: 30%
  trabecular BV/TV, higher: 66%
WT mice; ICV injection, WT mice
  serum leptin levels: decreased
OX2R-KO mice; 10-week-old OX2R-KO male mice
  Serum P1NP: unaltered
OX2R-KO mice; OX2R-KO male mice
  bone anabolic effect: abolished
[5]
  OVX-induced bone loss: attenuated
  OVX-mediated increase in CTX-1: not significantly altered
  OVX-mediated reduction in P1NP: significantly abolished
  OVX-mediated reduction in bone formation rate: rescued
  OVX-mediated reduction in osteoblast number: rescued
Ob/Ob mice
  BV/TV: no longer able to increase
  Tb.N: no longer able to increase
  Tb.Sp: no longer able to increase
Ob/Ob mice; 12 week old male
  bone enhancing effects: completely abolished
Ob/Ob mice; serum
  P1NP: no longer able to increase

## orexin-A: Human orexin-A peptide, 33 amino acid residues, agonist for OX1R and OX2R (QPLPDCCRQKTCSCRLYELLHGAGNHAAGILTL; ends and bridges not checked; cysteine pairing not given here; UniProt O43612 34-66, looked up)
OX1
  binding to both OX1 and OX2: approximately equal affinity
3T3-L1 adipocytes; 3T3-L1 adipocytes
  glucose uptake: stimulates
3T3-L1 adipocytes; adipocytes
  lipogenesis: increases
  lipolysis: inhibits
  secretion of adiponectin: stimulates
[1]
  adipocyte differentiation: enhanced
Ghrelin [2]
  ghrelin expression in adipocyte differentiation cultures: inhibited
Ghrelin [3]
  ghrelin induction during osteoblast differentiation: abolished
[4]
  osteoblast differentiation: inhibited

## orexin-B: Human orexin-B, linear 28 amino acid residue peptide, agonist for mainly OX2R
OX1
  potency at OX1, less than at OX2: 5 times
Orexin receptor type 2
  selectivity for orexin receptor type 2: 10 fold
